This assay concerns the target T1, LRRK2 (endogenous, HiBit tagged) (Homo sapiens, UniProt Q5S007).
T1 construct: endogenous in cells; host or cells: HEK293 cells with HiBit knock-in at the endogenous LRRK2 locus, stably expressing firefly luciferase
Kind of assay: Endogenous LRRK2 degradation assay, endogenous gene C-terminally HiBit-tagged in HEK293 cells (Nano-Glo Dual Luciferase). The assay is classed as cell-based. Conditions: endogenous HiBit-tagged LRRK2 in HEK293 cells, 24 hours treatment. Put shortly: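 LRRK2-HiBit quantified via Nano-Glo Dual Luciferase in HEK293 knock-in cells co-expressing firefly luciferase, after 24 h exposure to compound (1 μM final top, 1:3, 11 points). Values normalised to DMSO median per plate and curve-fitted; Alamar Blue viability run alongside.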
A general note: The HiBiT peptide binds its large partner to form an active luciferase.

[1] abbreviates: read-out: **Endogenous WT Dmax (%).

The structures appear in SMILES notation. Where two headings read alike, the source gives them in different places.

T1 sequence (Q5S007 whole entry): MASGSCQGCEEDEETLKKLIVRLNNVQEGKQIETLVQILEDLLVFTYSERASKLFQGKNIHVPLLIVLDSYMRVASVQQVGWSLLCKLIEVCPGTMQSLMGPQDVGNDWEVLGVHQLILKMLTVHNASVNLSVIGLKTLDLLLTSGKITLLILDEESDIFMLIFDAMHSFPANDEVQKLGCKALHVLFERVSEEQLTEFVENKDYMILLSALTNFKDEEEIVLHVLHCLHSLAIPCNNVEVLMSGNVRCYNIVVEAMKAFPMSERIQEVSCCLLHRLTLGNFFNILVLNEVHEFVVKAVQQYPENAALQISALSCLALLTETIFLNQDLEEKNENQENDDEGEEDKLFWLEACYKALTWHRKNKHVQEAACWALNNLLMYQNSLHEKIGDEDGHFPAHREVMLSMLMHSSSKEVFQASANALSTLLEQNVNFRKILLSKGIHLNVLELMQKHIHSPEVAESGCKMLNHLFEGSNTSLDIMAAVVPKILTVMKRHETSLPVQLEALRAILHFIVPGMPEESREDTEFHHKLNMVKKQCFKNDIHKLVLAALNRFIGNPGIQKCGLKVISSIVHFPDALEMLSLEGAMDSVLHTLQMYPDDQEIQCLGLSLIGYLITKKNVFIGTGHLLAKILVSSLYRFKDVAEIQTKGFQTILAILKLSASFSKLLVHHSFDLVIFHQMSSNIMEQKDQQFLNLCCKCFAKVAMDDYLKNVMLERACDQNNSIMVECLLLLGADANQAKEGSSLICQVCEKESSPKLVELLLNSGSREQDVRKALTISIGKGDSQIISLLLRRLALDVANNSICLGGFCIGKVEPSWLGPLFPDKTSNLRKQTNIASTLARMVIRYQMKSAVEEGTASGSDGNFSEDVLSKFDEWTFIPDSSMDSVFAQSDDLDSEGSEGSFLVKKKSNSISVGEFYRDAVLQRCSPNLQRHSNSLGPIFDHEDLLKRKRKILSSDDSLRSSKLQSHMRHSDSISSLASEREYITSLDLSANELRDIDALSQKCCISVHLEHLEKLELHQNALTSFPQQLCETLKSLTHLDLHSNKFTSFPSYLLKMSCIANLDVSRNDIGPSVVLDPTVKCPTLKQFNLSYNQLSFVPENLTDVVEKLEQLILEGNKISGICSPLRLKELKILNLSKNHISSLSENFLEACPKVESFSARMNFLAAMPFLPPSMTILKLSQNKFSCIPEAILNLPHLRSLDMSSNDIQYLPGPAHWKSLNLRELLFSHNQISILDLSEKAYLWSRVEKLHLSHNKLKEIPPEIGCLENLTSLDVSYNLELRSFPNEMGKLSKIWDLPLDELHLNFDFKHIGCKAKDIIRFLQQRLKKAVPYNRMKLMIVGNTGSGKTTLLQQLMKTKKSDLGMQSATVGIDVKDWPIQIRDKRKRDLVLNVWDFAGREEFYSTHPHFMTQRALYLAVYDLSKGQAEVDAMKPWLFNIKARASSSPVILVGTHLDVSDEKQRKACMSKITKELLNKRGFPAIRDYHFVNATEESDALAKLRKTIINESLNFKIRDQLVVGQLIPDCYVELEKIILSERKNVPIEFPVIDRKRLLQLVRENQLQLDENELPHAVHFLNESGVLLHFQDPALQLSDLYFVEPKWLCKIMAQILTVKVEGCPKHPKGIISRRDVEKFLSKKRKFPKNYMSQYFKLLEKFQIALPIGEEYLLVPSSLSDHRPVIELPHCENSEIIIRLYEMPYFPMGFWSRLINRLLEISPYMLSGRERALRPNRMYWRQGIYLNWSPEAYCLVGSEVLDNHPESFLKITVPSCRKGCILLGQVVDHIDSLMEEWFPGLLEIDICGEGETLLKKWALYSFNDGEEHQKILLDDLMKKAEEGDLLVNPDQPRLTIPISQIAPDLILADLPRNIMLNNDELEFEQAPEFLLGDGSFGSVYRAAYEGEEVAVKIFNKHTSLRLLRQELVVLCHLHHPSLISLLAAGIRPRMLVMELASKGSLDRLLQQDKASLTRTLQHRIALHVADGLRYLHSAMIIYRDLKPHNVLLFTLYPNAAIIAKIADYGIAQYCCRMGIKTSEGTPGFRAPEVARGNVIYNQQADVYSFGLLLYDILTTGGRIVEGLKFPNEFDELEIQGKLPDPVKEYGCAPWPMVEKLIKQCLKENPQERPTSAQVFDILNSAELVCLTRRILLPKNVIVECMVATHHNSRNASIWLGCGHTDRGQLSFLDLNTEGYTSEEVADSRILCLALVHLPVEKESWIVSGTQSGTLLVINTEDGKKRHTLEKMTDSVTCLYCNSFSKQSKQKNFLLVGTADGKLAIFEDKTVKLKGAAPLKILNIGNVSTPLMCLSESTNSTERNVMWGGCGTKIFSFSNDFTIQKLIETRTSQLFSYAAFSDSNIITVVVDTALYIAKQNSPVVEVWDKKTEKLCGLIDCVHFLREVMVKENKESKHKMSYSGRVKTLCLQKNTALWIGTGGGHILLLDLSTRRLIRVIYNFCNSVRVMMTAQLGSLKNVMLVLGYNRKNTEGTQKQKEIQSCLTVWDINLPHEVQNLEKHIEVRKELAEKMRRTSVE

What is called DC50 is the midpoint of the concentration-degradation curve. In general, Dmax refers to the largest share of the target that was removed. On to `CC1(Oc2ccc3n[nH]c(-c4cc(N5CCC(O[C@H]6CC[C@H](OC7CCN(c8ccc9c(c8F)CN(C8CCC(=O)NC8=O)C9=O)CC7)CC6)CC5)ncn4)c3c2)CC1` (some centres unmarked) [Compound 228, 3-[4-fluoro-5-[4-[4-[[1-[6-[5-(1-methylcyclopropoxy)-2H-indazol-3-yl]pyrimidin-4-yl]-4-piperidyl]oxy]cyclohexoxy]-1-piperidyl]-1-oxo-isoindolin-2-yl]piperidine-2,6-dione], for which, under “read-out: Endogenous WT DC50”, the DC50 fell in the range of 10 to 50 nM. Also, the Dmax (read-out: Endogenous WT Dmax) was 50 to 70%.
In the case of `COc1c(N2CCN(CC3(F)CCN(CC4CCN(c5cc(-c6[nH]nc7ccc(OC8(C)CC8)cc67)ncn5)CC4)CC3)CC2)ccc2c1CN(C1CCC(=O)NC1=O)C2=O` (centres unmarked) [Compound 246, 3-{5-[4-({4-fluoro-1-[(1-{6-[5-(1-methylcyclopropoxy)-2H-indazol-3-yl]pyrimidin-4-yl}piperidin-4-yl)methyl]piperidin-4-yl}methyl)piperazin-1-yl]-4-methoxy-1-oxo-2,3-dihydro-1H-isoindol-2-yl}piperidine-2,6-dione], the DC50 (read-out: Endogenous WT DC50) is less than 10 nM. Besides, the Dmax (read-out: Endogenous WT Dmax) was 50 to 70%.
For `CC1(Oc2ccc3[nH]nc(-c4cc(N5CCC(CN6CCN(CC7CCN(c8ccc9c(c8F)CN(C8CCC(=O)NC8=O)C9=O)CC7)CC6(C)C)CC5)ncn4)c3c2)CC1` (centres unmarked) [Compound 224, 3-[5-[4-[[3,3-dimethyl-4-[[1-[6-[5-(1-methylcyclopropoxy)-1H-indazol-3-yl]pyrimidin-4-yl]-4-piperidyl]methyl]piperazin-1-yl]methyl]-1-piperidyl]-4-fluoro-1-oxo-isoindolin-2-yl]piperidine-2,6-dione] the same measures were less than 10 nM and 50 to 70%.
For `COc1c(N2CCC(O[C@H]3CC[C@H](OC4CCN(c5cc(-c6n[nH]c7ccc(OC8(C)CC8)cc67)ncn5)CC4)CC3)CC2)ccc2c1CN(C1CCC(=O)NC1=O)C2=O` (some centres unmarked) [Compound 248, 3-[4-methoxy-1-oxo-5-(4-{[(1r,4r)-4-[(1-{6-[5-(1-methylcyclopropoxy)-1H-indazol-3-yl]pyrimidin-4-yl}piperidin-4-yl)oxy]cyclohexyl]oxy}piperidin-1-yl)-2,3-dihydro-1H-isoindol-2-yl]piperidine-2,6-dione] the same measures were less than 10 nM and 50 to 70%.
For `COc1c(N2CC3(CCN(CCN4CCN(c5cc(-c6n[nH]c7ccc(OC8(C)CC8)cc67)ncn5)CC4)CC3(F)F)C2)ccc2c1CN(C1CCC(=O)NC1=O)C2=O` (centres unmarked) [Compound 363, 3-(5-{5,5-difluoro-7-[2-(4-{6-[5-(1-methylcyclopropoxy)-1H-indazol-3-yl]pyrimidin-4-yl}piperazin-1-yl)ethyl]-2,7-diazaspiro[3.5]nonan-2-yl}-4-methoxy-1-oxo-2,3-dihydro-1H-isoindol-2-yl)piperidine-2,6-dione] the same measures were less than 10 nM and 50 to 70%.
Regarding `CC1(Oc2ccc3[nH]nc(-c4cc(N5CCN(C[C@H]6CC[C@H](OC7CCN(c8ccc9c(c8F)CN(C8CCC(=O)NC8=O)C9=O)CC7)CC6)CC5(C)C)ncn4)c3c2)CC1` (some centres unmarked) [Compound 383, 3-(5-(4-(((1r,4r)-4-((3,3-dimethyl-4-(6-(5-(1-methylcyclopropoxy)-1H-indazol-3-yl)pyrimidin-4-yl)piperazin-1-yl)methyl)cyclohexyl)oxy)piperidin-1-yl)-4-fluoro-1-oxoisoindolin-2-yl)piperidine-2,6-dione], for the setting “read-out: Endogenous WT DC50”, the DC50 fell in the range of 50 to 100 nM. The Dmax (read-out: Endogenous WT Dmax) was less than 50%.
For `COc1c(N2CCC(CN3CCC(F)(CN4CCN(c5cc(-c6n[nH]c7ccc(OC8(C)CC8)cc67)ncn5)CC4)CC3)CC2)ccc2c1CN(C1CCC(=O)NC1=O)C2=O` (centres unmarked) [Compound 212, 3-[5-[4-[[4-fluoro-4-[[4-[6-[5-(1-methylcyclopropoxy)-1H-indazol-3-yl]pyrimidin-4-yl]piperazin-1-yl]methyl]-1-piperidyl]methyl]-1-piperidyl]-4-methoxy-1-oxo-isoindolin-2-yl]piperidine-2,6-dione] the same measures were less than 10 nM and 50 to 70%.
For `COc1c(N2CCC(CN3CCN(CC4CCN(c5cc(-c6n[nH]c7ccc(OC8(C)CC8)cc67)ncn5)CC4)CC3)CC2)ccc2c1CN(C1CCC(=O)NC1=O)C2=O` (centres unmarked) [Compound 211, 3-[4-methoxy-5-[4-[[4-[[1-[6-[5-(1-methylcyclopropoxy)-1H-indazol-3-yl]pyrimidin-4-yl]-4-piperidyl]methyl]piperazin-1-yl]methyl]-1-piperidyl]-1-oxo-isoindolin-2-yl]piperidine-2,6-dione] the same measures were less than 10 nM and not below 70%.
On to `COc1c(N2CCN(C[C@H]3CC[C@H](OC4CCN(c5cc(-c6n[nH]c7ccc(OC8(C)CC8)cc67)ncn5)CC4)CC3)C(C)(C)C2)ccc2c1CN(C1CCC(=O)NC1=O)C2=O` (some centres unmarked) [Compound 364, 3-[5-(3,3-dimethyl-4-{[(1r,4r)-4-[(1-{6-[5-(1-methylcyclopropoxy)-1H-indazol-3-yl]pyrimidin-4-yl}piperidin-4-yl)oxy]cyclohexyl]methyl}piperazin-1-yl)-4-methoxy-1-oxo-2,3-dihydro-1H-isoindol-2-yl]piperidine-2,6-dione], for which the DC50 (read-out: Endogenous WT DC50) is less than 10 nM. Moreover, under “read-out: Endogenous WT Dmax”, the Dmax fell in the range of 50 to 70%.
With `CC1(Oc2ccc3n[nH]c(-c4cc(N5CCN(CC6(F)CN(CC7CCN(c8ccc9c(c8F)CN(C8CCC(=O)NC8=O)C9=O)CC7)C6)CC5)ncn4)c3c2)CC1` (centres unmarked) [Compound 306, 3-{4-fluoro-5-[4-({3-fluoro-3-[(4-{6-[5-(1-methylcyclopropoxy)-2H-indazol-3-yl]pyrimidin-4-yl}piperazin-1-yl)methyl]azetidin-1-yl}methyl)piperidin-1-yl]-1-oxo-2,3-dihydro-1H-isoindol-2-yl}piperidine-2,6-dione], the Dmax under setting [1] was 50 to 70%. Further, where the note is “read-out: *Endogenous WT DC50”, the DC50 is less than 10 nM.
For `CC1(Oc2ccc3[nH]nc(-c4cc(N5CCC(C(C)(C)N6CCN(CC7CCN(c8ccc9c(c8F)CN(C8CCC(=O)NC8=O)C9=O)CC7)CC6)CC5)ncn4)c3c2)CC1` (centres unmarked) [Compound 320, 3-{4-fluoro-5-[4-({4-[2-(1-{6-[5-(1-methylcyclopropoxy)-1H-indazol-3-yl]pyrimidin-4-yl}piperidin-4-yl)propan-2-yl]piperazin-1-yl}methyl)piperidin-1-yl]-1-oxo-2,3-dihydro-1H-isoindol-2-yl}piperidine-2,6-dione] the same measures were 50 to 70% and less than 10 nM.
With `CC1(Oc2cc3c(-c4cc(N5CCC(O[C@H]6CC[C@H](CN7CCN(c8ccc9c(c8F)CN(C8CCC(=O)NC8=O)C9=O)CC7)CC6)CC5)ncn4)n[nH]c3cc2F)CC1` (some centres unmarked) [Compound 259, 3-[4-fluoro-1-oxo-5-(4-{[(1r,4r)-4-[(1-{6-[6-fluoro-5-(1-methylcyclopropoxy)-1H-indazol-3-yl]pyrimidin-4-yl}piperidin-4-yl)oxy]cyclohexyl]methyl}piperazin-1-yl)-2,3-dihydro-1H-isoindol-2-yl]piperidine-2,6-dione], under setting [1], the Dmax lay within 50 to 70%. Also, the DC50 (read-out: *Endogenous WT DC50) is less than 10 nM.
The like results for `C[C@H]1CN(c2ccc3c(c2F)CN(C2CCC(=O)NC2=O)C3=O)CCN1C[C@H]1CC[C@H](OC2CCN(c3cc(-c4n[nH]c5ccc(OC6(C)CC6)cc45)ncn3)CC2)CC1` (stereo partly drawn) [Compound 346, 3-{4-fluoro-5-[(3S)-3-methyl-4-{[(1r,4r)-4-[(1-{6-[5-(1-methylcyclopropoxy)-1H-indazol-3-yl]pyrimidin-4-yl}piperidin-4-yl)oxy]cyclohexyl]methyl}piperazin-1-yl]-1-oxo-2,3-dihydro-1H-isoindol-2-yl}piperidine-2,6-dione] were, in that order, 50 to 70% and less than 10 nM.
On to `CC1(Oc2cc3c(-c4cc(N5CCC(CN6CCN(CC7CCN(c8ccc9c(c8F)CN(C8CCC(=O)NC8=O)C9=O)CC7)C(C)(C)C6)CC5)ncn4)n[nH]c3cc2F)CC1` (centres unmarked) [Compound 275, 3-{4-fluoro-5-[4-({4-[(1-{6-[6-fluoro-5-(1-methylcyclopropoxy)-1H-indazol-3-yl]pyrimidin-4-yl}piperidin-4-yl)methyl]-2,2-dimethylpiperazin-1-yl}methyl)piperidin-1-yl]-1-oxo-2,3-dihydro-1H-isoindol-2-yl}piperidine-2,6-dione], for which the Dmax under setting [1] lay in the range of 50 to 70%. For the same compound, the DC50 (read-out: *Endogenous WT DC50) is less than 10 nM.
For `CC1(Oc2ccc3[nH]nc(-c4cc(N5CCC(CN6CCN(C[C@H]7CCN(c8ccc9c(c8F)CN(C8CCC(=O)NC8=O)C9=O)C7)CC6)CC5)ncn4)c3c2)CC1` (stereo partly drawn) [Compound 330, 3-{4-fluoro-5-[(3R)-3-({4-[(1-{6-[5-(1-methylcyclopropoxy)-1H-indazol-3-yl]pyrimidin-4-yl}piperidin-4-yl)methyl]piperazin-1-yl}methyl)pyrrolidin-1-yl]-1-oxo-2,3-dihydro-1H-isoindol-2-yl}piperidine-2,6-dione] the same measures were 50 to 70% and less than 10 nM.
Turning to `COc1c(N2CCN(C[C@H]3CC[C@H](CN4CCN(c5cc(-c6n[nH]c7cnc(OC8(C)CC8)cc67)ncn5)CC4)CC3)CC2)ccc2c1CN(C1CCC(=O)NC1=O)C2=O` (some centres unmarked) [Compound 261, 3-[4-methoxy-1-oxo-5-(4-{[(1r,4r)-4-[(4-{6-[5-(1-methylcyclopropoxy)-1H-pyrazolo[3,4-c]pyridin-3-yl]pyrimidin-4-yl}piperazin-1-yl)methyl]cyclohexyl]methyl}piperazin-1-yl)-2,3-dihydro-1H-isoindol-2-yl]piperidine-2,6-dione], under setting [1], the Dmax was 50 to 70%. For the same compound, the DC50 (read-out: *Endogenous WT DC50) is less than 10 nM.

The values are drawn from US12559506B2, “Indazole based compounds and associated methods of use” (Arvinas Operations, Inc., priority 2021, dated 2026).
